Results published in patent US20240366589A1, “NHE3-BINDING COMPOUNDS AND METHODS FOR INHIBITING PHOSPHATE TRANSPORT” (Ardelyx, Inc., priority 2013, published 2024).

System: adenine-induced uremic rat model
Assay: Adenine-induced uremic rat model
Format: in vivo
Method: The effects of Cpd 002 (from Table E4, as the dihydrochloride salt) were tested in an adenine-induced uremic rat model. Rats were fed a diet including 0.75% adenine and 1.2% phosphorus during the nephritis induction phase. The basal diet during the treatment phase was normal chow including 0.3% adenine and 0.6% phosphorus for 2 weeks. The rats were pair-fed the first 5 days (groups 1 and 2 to group 3, 4 days apart), and fed ad libitum afterwards. The treatment groups were as follows: vehicle, n=10; Cpd 002, 2 mg/kg/day drug-in-chow, n=10; and Cpd 002, 5 mg/kg/day drug-in-chow, n=12. Weekly measurements were taken for serum markers and kidney function. The study design is illustrated in FIG. 8A.

[1] = early time points, 2 and 5 mg/kg/day drug-in-chow
[2] = week three, highest dose 5 mg/kg/day

For `CN1Cc2c(Cl)cc(Cl)cc2[C@H](c2cccc(S(=O)(=O)NCCOCCOCCNC(=O)NCCCCNC(=O)NCCOCCOCCNS(=O)(=O)c3cccc([C@@H]4CN(C)Cc5c(Cl)cc(Cl)cc54)c3)c2)C1` [Cpd 002], the serum creatinine [1] was “reduced”, the serum phosphorus [1] was “reduced” and the “heart remodeling (organ weight)” value (week three) was “trend towards lesser heart and kidney remodeling”. For the same molecule, the “kidney remodeling (organ weight)” value (week three) was “trend towards lesser heart and kidney remodeling”, the “heart calcification (tissue mineralization)” value [2] was “trend towards reduced heart and kidney calcification” and the “kidney calcification (tissue mineralization)” value [2] was “trend towards reduced heart and kidney calcification”.
